For 17 compounds, inhibition and IC50 results are on record in patent US10385057B2, “Pyrazole compounds and methods of making and using same” (Lundbeck La Jolla Research Center, Inc., priority 2015, dated 2019).

Bounds are passed on as bounds.

In one assay the target is T1, MAGL (Mus musculus, UniProt O35678).
T1 construct: mouse brain membrane fraction or cell lysates for mouse assays; from tissue
T1 sequence (O35678 1-303): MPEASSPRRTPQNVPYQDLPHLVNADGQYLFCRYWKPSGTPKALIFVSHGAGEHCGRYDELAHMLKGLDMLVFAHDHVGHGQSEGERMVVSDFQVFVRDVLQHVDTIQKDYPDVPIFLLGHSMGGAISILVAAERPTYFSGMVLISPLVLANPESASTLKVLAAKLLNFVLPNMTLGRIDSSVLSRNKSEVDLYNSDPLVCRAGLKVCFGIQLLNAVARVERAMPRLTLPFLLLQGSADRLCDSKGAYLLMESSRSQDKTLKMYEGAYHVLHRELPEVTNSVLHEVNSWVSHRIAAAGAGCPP
As to the kind of experiment: In vitro competitive activity-based protein profiling, mouse MAGL. The class given is biochemical. The following applies: for inhibition at 1 µM: read-out: MAGL % inh. 1 μM (mouse). In outline: (§1)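 Mouse brain membranes or cell lysates (mouse) and human prefrontal cortex or cell membrane fractions (human), 1.0 mg/mL protein, preincubated with inhibitor 30 min at 37 °C, then FP-Rh or HT-01 probe 30 min at 37 °C. SDS-PAGE; MAGL and FAAH activity from in-gel fluorescence band intensity.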

A further assay concerns the target T2, FAAH (Mus musculus, UniProt O08914).
T2 construct: mouse brain membrane fraction or cell lysates for mouse assays; from tissue
T2 sequence (O08914 1-579): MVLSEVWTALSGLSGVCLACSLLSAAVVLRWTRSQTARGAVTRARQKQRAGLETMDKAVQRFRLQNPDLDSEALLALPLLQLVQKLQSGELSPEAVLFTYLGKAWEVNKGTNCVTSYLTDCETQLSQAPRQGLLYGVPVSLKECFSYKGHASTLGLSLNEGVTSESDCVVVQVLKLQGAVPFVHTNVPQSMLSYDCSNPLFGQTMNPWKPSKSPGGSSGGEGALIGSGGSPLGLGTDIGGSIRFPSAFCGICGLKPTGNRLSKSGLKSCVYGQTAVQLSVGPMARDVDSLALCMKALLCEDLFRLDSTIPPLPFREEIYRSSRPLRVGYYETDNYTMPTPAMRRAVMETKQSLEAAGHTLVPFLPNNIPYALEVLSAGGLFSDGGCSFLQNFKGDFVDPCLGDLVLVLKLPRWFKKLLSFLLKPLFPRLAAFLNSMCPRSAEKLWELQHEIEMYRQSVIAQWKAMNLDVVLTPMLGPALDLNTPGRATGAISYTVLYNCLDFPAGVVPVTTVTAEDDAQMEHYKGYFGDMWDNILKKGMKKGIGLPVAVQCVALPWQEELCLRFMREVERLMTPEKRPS
Kind of assay: In vitro competitive activity-based protein profiling, mouse FAAH. The class given is biochemical. The note with it: for inhibition at 1 µM: read-out: FAAH % inh. 1 μM (mouse). In outline:
as §1

With `O=C(c1cnn(C(=O)N2CCC3(CCN(Cc4cccc(C(F)(F)F)c4)C3)C2)c1)N1CCOCC1` (stereo not shown) [Example 32, (4-(morpholine-4-carbonyl)-1H-pyrazol-1-yl)(7-(3-(trifluoromethyl)benzyl)-2,7-diazaspiro[4.4]nonan-2-yl)methanone], the inhibition at 1 µM was 0 to 25% on MAGL and at least 75% at FAAH. Further, the inhibition at 10 µM on MAGL (10 μM, read-out: MAGL % inh. at 10 μM (mouse)) turned out to be 50%; at FAAH (10 μM, read-out: FAAH % inh. at 10 μM (mouse)), 100%.
Take `NC(=O)c1cnn(C(=O)N2CC3CN(Cc4ccc(C(F)(F)F)cc4)CC3C2)c1` (stereo not shown) [Example 18, 1-(5-(4-(trifluoromethyl)benzyl)octahydropyrrolo[3,4-c]pyrrole-2-carbonyl)-1H-pyrazole-4-carboxamide]: on MAGL, the IC50 was at most 0.1 µM and the inhibition at 1 µM was at least 75%. Further, at FAAH, the IC50 was at most 0.1 µM and the inhibition at 1 µM was at least 75%.
For `O=C(c1cnn(C(=O)N2CCC3(CCN(Cc4ccc(N5CCOCC5)cc4C(F)(F)F)C3)C2)c1)N1CCN(C2CC2)CC1` (stereo not shown) [Example 52, (4-cyclopropylpiperazin-1-yl)(1-(7-(4-morpholino-2-(trifluoromethyl)benzyl)-2,7-diazaspiro[4.4]nonane-2-carbonyl)-1H-pyrazol-4-yl)methanone], the inhibition at 1 µM at MAGL and on FAAH was at least 75% each time.
On to `O=C(c1cnn(C(=O)N2CCC3(CCN(Cc4cc(Cl)cc(C(F)(F)F)c4)C3)C2)c1)N1CCN(C2CC2)CC1` (stereo not shown) [Example 36, (1-(7-(3-chloro-5-(trifluoromethyl)benzyl)-2,7-diazaspiro[4.4]nonane-2-carbonyl)-1H-pyrazol-4-yl)(4-cyclopropylpiperazin-1-yl)methanone], for which the inhibition at 1 µM on MAGL and at FAAH was at least 75% throughout.
Take `CN(Cc1ccc(-c2cccnn2)cc1C(F)(F)F)[C@H]1C[C@@H]2CN(C(=O)n3cc(C(N)=O)cn3)C[C@@H]2C1` [Example 225, 1-(trans-5-(methyl(4-(pyridazin-3-yl)-2-(trifluoromethyl)benzyl)amino)octahydrocyclopenta[c]pyrrole-2-carbonyl)-1H-pyrazole-4-carboxamide]: the inhibition at 1 µM on MAGL was at least 75%; on FAAH, 50 to 75%.
On to `CNC(=O)c1cnn(C(=O)N2CC3CN(Cc4cccc(C(F)(F)F)c4)CC3C2)c1` (stereo not shown) [Example 24, N-methyl-1-(5-(3-(trifluoromethyl)benzyl)octahydropyrrolo[3,4-c]pyrrole-2-carbonyl)-1H-pyrazole-4-carboxamide], for which, at MAGL, the half-inhibitory concentration (IC50) is at most 0.1 µM and the inhibition at 1 µM was at least 75%. On FAAH, the IC50 is at most 0.1 µM and the inhibition at 1 µM is at least 75%.
Turning to `Cc1ccc(CN2CCC3(CCN(C(=O)n4cc(C(F)(F)F)cn4)C3)C2)cc1` (stereo not shown) [Example 173, (7-(4-methylbenzyl)-2,7-diazaspiro[4.4]nonan-2-yl)(4-(trifluoromethyl)-1H-pyrazol-1-yl)methanone], the inhibition at 1 µM at MAGL and at FAAH was at least 75% in each case.
In the case of `CN(Cc1ccccc1C(F)(F)F)[C@@H]1C[C@@H]2CN(C(=O)n3cc(C(=O)N4CCCC4)cn3)C[C@@H]2C1` [Example 92, (cis-5-(methyl(2-(trifluoromethyl)benzyl)amino)hexahydrocyclopenta[c]pyrrol-2(1H)-yl)(4-(pyrrolidine-1-carbonyl)-1H-pyrazol-1-yl)methanone], the inhibition at 1 µM at MAGL and on FAAH was at least 75% each time.
On to `CNC(=O)c1cnn(C(=O)N2CC3CN(Cc4ccc(C(F)(F)F)cc4)CC3C2)c1` (stereo not shown) [Example 19, N-methyl-1-(5-(4-(trifluoromethyl)benzyl)octahydropyrrolo[3,4-c]pyrrole-2-carbonyl)-1H-pyrazole-4-carboxamide], for which, on MAGL, the IC50 was 0.1 to 1 µM and the inhibition at 1 µM was at least 75%. Moreover, at FAAH, the 50% inhibitory concentration (IC50) was at most 0.1 µM and the inhibition at 1 µM was at least 75%.
Regarding `O=C(N1CC2CN(Cc3ccc(F)cc3N3CCCC3)CC2C1)n1cc(Cl)cn1` (stereo not shown) [Example 103, (4-chloro-1H-pyrazol-1-yl)(5-(4-fluoro-2-(pyrrolidin-1-yl)benzyl)hexahydropyrrolo[3,4-c]pyrrol-2(1H)-yl)methanone], on MAGL, the concentration for half-maximal inhibition (IC50) is at most 0.1 µM and the inhibition at 1 µM is at least 75%. At FAAH, the IC50 was at most 0.1 µM and the inhibition at 1 µM was at least 75%.
Turning to `O=C(N1CCC2(CCN(Cc3cccc(Oc4ccccc4)c3)C2)C1)n1cc(Cl)cn1` (stereo not shown) [Example 135, (4-chloro-1H-pyrazol-1-yl)(7-(3-phenoxybenzyl)-2,7-diazaspiro[4.4]nonan-2-yl)methanone], the IC50 at MAGL is 0.1 to 1 µM; on FAAH, at most 0.1 µM. Further, the inhibition at 1 µM at MAGL and at FAAH was at least 75% each time.
With `O=C(N1CC2CN(Cc3ccc(C(F)(F)F)cc3N3CCCC3)CC2C1)n1cc(Cl)cn1` (stereo not shown) [Example 110, (4-chloro-1H-pyrazol-1-yl)(5-(2-(pyrrolidin-1-yl)-4-(trifluoromethyl)benzyl)hexahydropyrrolo[3,4-c]pyrrol-2(1H)-yl)methanone], the IC50 is at most 0.1 µM on MAGL and 0.1 to 1 µM at FAAH. Also, the inhibition at 1 µM at MAGL and on FAAH was at least 75% throughout.
For `O=C(c1cnn(C(=O)N2CC3CN(Cc4cc(Cl)cc(C(F)(F)F)c4)CC3C2)c1)N1CCCC1` (stereo not shown) [Example 9, (5-(3-chloro-5-(trifluoromethyl)benzyl)hexahydropyrrolo[3,4-c]pyrrol-2(1H)-yl)(4-(pyrrolidine-1-carbonyl)-1H-pyrazol-1-yl)methanone], the inhibition at 1 µM at MAGL and on FAAH was at least 75% in each case.
With `NC(=O)c1cnn(C(=O)N2CC[C@@]3(CCN(Cc4ccc(N5CCOCC5)cc4C(F)(F)F)C3)C2)c1` [Example 194, (R)-1-(7-(4-morpholino-2-(trifluoromethyl)benzyl)-2,7-diazaspiro[4.4]nonane-2-carbonyl)-1H-pyrazole-4-carboxamide], the inhibition at 1 µM on MAGL and at FAAH was at least 75% each time.
As for `O=C(N1CCC2(CCN(Cc3ccc(N4CCCC4)cc3)C2)C1)n1cc(Cl)cn1` (stereo not shown) [Example 134, (4-chloro-1H-pyrazol-1-yl)(7-(4-(pyrrolidin-1-yl)benzyl)-2,7-diazaspiro[4.4]nonan-2-yl)methanone], the IC50 is 0.1 to 1 µM on MAGL and at most 0.1 µM on FAAH. Further, the inhibition at 1 µM on MAGL and on FAAH was at least 75% each time.
Consider `O=C(N1CC2CN(Cc3ccccc3N3CCOCC3)CC2C1)n1cc(C(F)(F)F)cn1` (stereo not shown) [Example 157, (5-(2-morpholinobenzyl)hexahydropyrrolo[3,4-c]pyrrol-2(1H)-yl)(4-(trifluoromethyl)-1H-pyrazol-1-yl)methanone], for which the IC50 was at most 0.1 µM at MAGL and 0.1 to 1 µM at FAAH. Also, the inhibition at 1 µM on MAGL and at FAAH was at least 75% throughout.
On to `CN(Cc1ccc(C(F)(F)F)cc1)[C@@H]1C[C@@H]2CN(C(=O)n3cc(C(=O)N4CCOCC4)cn3)C[C@@H]2C1` [Example 53, (cis-5-(methyl(4-(trifluoromethyl)benzyl)amino)hexahydrocyclopenta[c]pyrrol-2(1H)-yl)(4-(morpholine-4-carbonyl)-1H-pyrazol-1-yl)methanone], for which the inhibition at 1 µM was 25 to 50% on MAGL and at least 75% on FAAH.

As usually defined, the IC50 is the concentration needed to halve the response being measured. The low end stands for greater potency, the high end for weaker potency.
